In patent US9090651B2, “Helix 12 directed pharmaceutical products” (ENDORECHERCHE, INC., priority 2004, dated 2015):
Like-named read-outs stand apart in the source and are kept apart here.

Key:
[1] = system: Shionogi mouse mammary carcinoma cells; experiment: Androgenic/antiandrogenic activity on DHT-stimulated Shionogi cell growth; type: cell-based; conditions: Mus musculus
[2] = biological target: T1, Human Androgen Receptor (Homo sapiens, UniProt P10275); experiment: Androgen receptor binding assay (hydroxylapatite, [3H]R1881, cytosol of transfected HEK-293 cells); conditions: % RBA=100×IC50 R1881/IC50 compound, transfected cells
T1 sequence (P10275 1-920): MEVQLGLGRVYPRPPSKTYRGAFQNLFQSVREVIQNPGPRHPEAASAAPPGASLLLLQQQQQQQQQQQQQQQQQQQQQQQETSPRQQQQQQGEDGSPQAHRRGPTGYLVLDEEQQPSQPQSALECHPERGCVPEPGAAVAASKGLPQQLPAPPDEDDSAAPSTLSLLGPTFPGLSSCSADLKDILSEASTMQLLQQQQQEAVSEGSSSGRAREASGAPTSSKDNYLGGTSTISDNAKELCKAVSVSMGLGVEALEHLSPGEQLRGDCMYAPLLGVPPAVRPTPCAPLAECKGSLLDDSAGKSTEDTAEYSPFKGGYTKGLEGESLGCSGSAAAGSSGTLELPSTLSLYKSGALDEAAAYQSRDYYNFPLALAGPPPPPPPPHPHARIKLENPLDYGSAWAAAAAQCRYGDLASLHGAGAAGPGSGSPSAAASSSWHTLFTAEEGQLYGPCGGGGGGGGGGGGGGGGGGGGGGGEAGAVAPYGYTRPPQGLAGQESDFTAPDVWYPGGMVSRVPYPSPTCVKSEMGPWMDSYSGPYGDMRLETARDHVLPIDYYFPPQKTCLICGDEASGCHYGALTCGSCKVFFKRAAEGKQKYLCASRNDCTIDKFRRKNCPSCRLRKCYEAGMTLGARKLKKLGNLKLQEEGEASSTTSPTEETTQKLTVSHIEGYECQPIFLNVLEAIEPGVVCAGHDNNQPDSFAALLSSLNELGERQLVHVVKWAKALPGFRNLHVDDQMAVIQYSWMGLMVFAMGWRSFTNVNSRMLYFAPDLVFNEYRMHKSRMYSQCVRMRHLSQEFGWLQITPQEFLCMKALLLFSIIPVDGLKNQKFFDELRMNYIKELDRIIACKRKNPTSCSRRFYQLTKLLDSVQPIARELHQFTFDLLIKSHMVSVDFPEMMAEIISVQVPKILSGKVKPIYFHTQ

[3] = read-out: Shionogi Antiandrogenic activity IC50 (nM), inhibition of DHT-stimulated Shionogi cell number

| Compound | IC50 [1, 3] [nM] | Androgen Receptor Binding (%) Human RBA R1881 = 100 [2] [%] | IC50 ([1]; inhibition of DHT-stimulated Shionogi cell number, read-out: Shionogi Antiandrogenic activity IC50) [nM] |
| --- | --- | --- | --- |
| CC(C)(NCc1ccccc1)c1cccc(OCC[C@]23CCC4C(CCC5CC(=O)CC[C@@]54C)C2CC[C@@H]3O)c1 (stereo partly shown) [EM-6708] | 27.5 | 62 |  |
| CCCN(C1CC1)C(CC)c1cccc(OCC[C@]23CCC4C(CCC5CC(=O)CC[C@@]54C)C2CC[C@@H]3O)c1 (stereo partly shown) [EM-6735] | 3.2 | 2385 |  |
| CCCC(NC1CCCCC1)c1cccc(OCC[C@]23CCC4C(CCC5CC(=O)CC[C@@]54C)C2CC[C@@H]3O)c1 (stereo partly shown) [EM-6737] | 1.6 | 292.5 |  |
| CCCC(NC1CCCC1)c1cccc(OCC[C@]23CCC4C(CCC5CC(=O)CC[C@@]54C)C2CC[C@@H]3O)c1 (stereo partly shown) [EM-6738] | 1.7 | 174.2 |  |
| CCCC(NC1CCCC1)c1cccc(OCC[C@]23CCC4C(CCC5CC(=O)CC[C@@]54C)C2CCC3=O)c1 (stereo partly shown) [EM-6739] | 2.4 | 132.5 |  |
| CC(C)(c1cccc(OCC[C@]23CCC4C(CCC5CC(=O)CC[C@@]54C)C2CC[C@@H]3O)c1)N1CCCCC1 (stereo partly shown) [EM-6740] | 15 | 42.5 |  |
| CCC(NC1CCOCC1)c1cccc(OCC[C@]23CCC4C(CCC5=CC(=O)CC[C@@]54C)C2CCC3O)c1 (stereo partly shown) [EM-6765] | 0.2 | 34.6 |  |
| CCC(NC1CCOCC1)c1cccc(OCC[C@]23CCC4C(CCC5=CC(=O)CC[C@@]54C)C2CCC3(C)O)c1 (stereo partly shown) [EM-6766] | 0.5 | 55.9 |  |
| CCC(NC1CCOCC1)c1cccc(OCC[C@]23CCC4C(CCC5CC=CC[C@@]54C)C2CCC3O)c1 (stereo partly shown) [EM-6791] | 45.5 | 50.2 |  |
| CCC(NC1CCS(=O)(=O)CC1)c1cccc(OCC[C@]23CCC4C(CCC5CC(=O)CC[C@@]54C)C2CCC3O)c1 (stereo partly shown) [EM-6836] | 2.4 | 62 |  |
| CCC(NC1CCSCC1)c1cccc(OCC[C@]23CCC4C(CCC5CC(=O)CC[C@@]54C)C2CCC3O)c1 (stereo partly shown) [EM-6844] | 2.1 | 506 |  |
| O=C1C=C2CCC3C(CC[C@@]4(CCOc5cccc(C[S+]([O-])c6ccccc6)c5)C3CC[C@@H]4O)C2CC1 (stereo partly shown) [EM-6847] | 46 | 3.2 |  |
| C[C@]12CCC(=O)CC1CCC1C2CC[C@]2(CCOc3cccc(CNc4ccncc4)c3)C(O)CCC12 (stereo partly shown) [EM-6856] | 32 | 6 |  |
| CCC(Nc1ccncc1)c1cccc(OCC[C@]23CCC4C(CCC5CC(=O)CC[C@@]54C)C2CCC3O)c1 (stereo partly shown) [EM-6857] | 63 | 5 |  |
| CCCCS(=O)(=O)Cc1cccc(OCC[C@]23CCC4C5CCC(=O)C=C5CCC4C2CC[C@@H]3O)c1 (stereo partly shown) [EM-6861] | 32 | 3.0 |  |
| CCC(NC1CCOCC1)c1cccc(OCC[C@]23CCC4C(CCC5Cc6n[nH]cc6C[C@@]54C)C2CCC3O)c1 (stereo partly shown) [EM-6867] | 4.4 | 11.3 |  |
| CCCC(NC(CC)CC)c1cccc(OCC[C@]23CCC4C(CCC5CCOC[C@@]54C)C2CCC3O)c1 (stereo partly shown) [EM-6876] |  | 44.4 | 16 |
| CCCCC(NC1CCCCC1)c1cccc(OCC[C@]23CCC4C(CCC5CC(=O)CC[C@@]54C)C2CCC3=O)c1 (stereo partly shown) [EM-6894] | 4.1 | 129.7 |  |
| CCCCC(NC1CCCCC1)c1cccc(OCC[C@]23CCC4C(CCC5CC(=O)CC[C@@]54C)C2CCC3O)c1 (stereo partly shown) [EM-6895] | 4.2 | 115.5 |  |

| Compound | IC50 [1, 3] [nM] | Androgen Receptor Binding (%) Human RBA R1881 = 100 [2] [%] | IC50 ([1]; inhibition of DHT-stimulated Shionogi cell number, read-out: Shionogi Antiandrogenic activity IC50) [nM] |
| --- | --- | --- | --- |
| CCCCC(NC(CC)CC)c1cccc(OCC[C@]23CCC4C(CCC5CC(=O)CC[C@@]54C)C2CCC3=O)c1 (stereo partly shown) [EM-6896] | 3.2 | 314.6 |  |
| CC(C)CNC1(c2cccc(OCC[C@]34CCC5C(CCC6CC(=O)CC[C@@]65C)C3CCC4O)c2)CC1 (stereo partly shown) [EM-6905] | 4.4 | 274.8 |  |
| CCCCC(NC(CC)CC)c1cccc(OCC[C@]23CCC4C(CCC5CC(=O)CC[C@@]54C)C2CCC3O)c1 (stereo partly shown) [EM-6906] | 0.5 | 372 |  |
| CCC(NC1CCOCC1)c1cccc(OCC[C@]23CCC4C(CCC5Cc6nocc6C[C@@]54C)C2CCC3O)c1 (stereo partly shown) [EM-6908] | 7.4 | 13 |  |
| CCC(NC(C)C)c1cccc(OCC[C@]23CCC4C(CCC5=CC(=O)CC[C@@]54C)C2CC[C@@H]3O)c1 (stereo partly shown) [EM-6960] | < 0.1 | 147 |  |
| COCC(NC1CCCCC1)c1cccc(OCC[C@]23CCC4C(CCC5CC(=O)CC[C@@]54C)C2CCC3O)c1 (stereo partly shown) [EM-6972] | 1.2 | 151 |  |
| CCC(NC1CCOCC1)c1cccc(OCC[C@]23CCC4C(CCC5CC(F)=CC[C@@]54C)C2CCC3O)c1 (stereo partly shown) [EM-6996] | 37.3 | 32 |  |
| CCC(CC)CNC(CC)(CC)c1cccc(OCC[C@]23CCC4C(CCC5CC(=O)CC[C@@]54C)C2CCC3O)c1 (stereo partly shown) [EM-7001] | 17 | 1981 |  |
| CCC(CC)CNC(CC)(CC)c1cccc(OCC[C@]23CCC4C(CCC5CC(=O)CC[C@@]54C)C2CCC3=O)c1 (stereo partly shown) [EM-7002] | 23 | 2088 |  |
| CC[C@H](NC1CCCCC1)c1cccc(OCC[C@]23CCC4C(CCC5CC(=O)CC[C@@]54C)C2CCC3O)c1 (stereo partly shown) [EM-7055] | 0.64 | 242 |  |
| CC[C@@H](NC1CCCCC1)c1cccc(OCC[C@]23CCC4C(CCC5CC(=O)CC[C@@]54C)C2CCC3O)c1 (stereo partly shown) [EM-7062] | 0.7 | 535 |  |
| CC[C@@H](NC1CCCCC1)c1cccc(OCC[C@]23CCC4C(CCC5CC(=O)CC[C@@]54C)C2CCC3=O)c1 (stereo partly shown) [EM-7063] | 0.51 | 115 |  |
| CCC(NC1CCCCC1)c1cncc(OCC[C@]23CCC4C(CCC5CC(=O)CC[C@@]54C)C2CCC3O)c1 (stereo partly shown) [EM-7093] | 0.16 | 361.8 |  |
| CCC(NC1CCCCC1)c1cncc(OCC[C@]23CCC4C(CCC5=CC(=O)CC[C@@]54C)C2CCC3O)c1 (stereo partly shown) [EM-7094] | 1.4 | 70.8 |  |
| CCC(NCC1CCCO1)c1ccnc(OCC[C@]23CCC4C(CCC5CC(=O)CC[C@@]54C)C2CC[C@@H]3O)c1 (stereo partly shown) [EM-7104] | 2.8 | 54.3 |  |
| CCC(c1cncc(OCC[C@]23CCC4C(CCC5CC(=O)CC[C@@]54C)C2CCC3O)c1)N1CCOCC1 (stereo partly shown) [EM-7106] | 81 | 2.5 |  |
| CCC(NC1CCOCC1)c1cncc(OCC[C@]23CCC4C(CCC5CC(=O)CC[C@@]54C)C2CCC3O)c1 (stereo partly shown) [EM-7107] | 1 | 66.2 |  |
| CCC1COCC(c2cccc(OCC[C@]34CCC5C(CCC6CC(=O)CC[C@@]65C)C3CCC4O)c2)N1 (stereo partly shown) [EM-7111] | 13 | 39 |  |
| CN(C)CC(NC1CCCCC1)c1cccc(OCC[C@]23CCC4C(CCC5CC(=O)CC[C@@]54C)C2CCC3O)c1 (stereo partly shown) [EM-7131] | 35 | 125.7 |  |
